# “Also recorded” adds a separate entry of the source.
# What was measured:
# CaV1 = test: HVA L-type calcium channel FLIPR assay in SH-SY5Y cells; assay type: cell-based, human; conditions: 1 µM CVID present, n = 3, read-out: IC50 CaV1 (HVA CaVs)
# Procedure: (§1) The human embryonic kidney 293 (HEK 293) cell lines (from Emmanuel Bourinet, Montpellier, France) stably expressing CaV3.2 or CaV3.3 were cultured under 5% carbon dioxide at 37 °C in Dulbecco’s Modified Eagle Medium (DMEM) Glutamax (Gibco, Life Technologies, Carlsbad, CA, USA) supplemented with 10% (v/v) fetal bovine serum (FBS), 100 U/mL penicillin, 100 μg/mL streptomycin (Gibco, Life Technologies, Carlsbad, CA, USA), and 750 μg/mL geneticin (G418) (Gibco, Life Technologies). The Chinese Hamster Ovary (CHO) cell lines (Emmanuel Bourinet, Montpellier, France) expressing CaV3.1 were cultured under 5% carbon dioxide at 37 °C in Alpha Minimum Essential Media (MEM) Glutamax (Gibco, Life Technologies), supplemented with 10% (v/v) fetal bovine serum (FBS) and 300 μg/mL geneticin (G418) (Gibco, Life Technologies). The human neuroblastoma SH-SY5Y cells (Victor Diaz, Goettingen, Germany) were cultured under 5% carbon dioxide at 37 °C in RPMI 1640 antibiotic-free medium (Invitrogen, Carlsbad, CA, USA), supplemented with 15% FBS and 2 mM GlutaMAX™ (Invitrogen). D-PBS (Gibco, Life Technologies) was used to wash the cells, and 0.25% Trypsin-EDTA (Gibco, Life Technologies) was used to detach cells from the flask surface. They were split in a ratio of 1:5 (ideally 1000 cells/cm^2) when they reached 70–80% confluence (every 2–3 days). Transiently transfected CaV3.1 HEK293 T cells were used in FLIPR Assays. HEK 293 T cells were cultured under 5% carbon dioxide at 37 °C in DMEM supplemented with 10% (v/v) FBS. D-PBS was used to wash the cells, and 0.25% Trypsin-EDTA was used to detach cells from the flask surface. The cells were split and seeded at 6 million cells per T175 flask, to reach 70–80% confluence after 24 h. The next day, 12 μg DNA of human CaV3.1 was incubated in 900 μL serum-free DMEM with 36 μL FuGENE HD transfection reagent (Promega Corporation, Madison, WI, USA) (1:3 DNA/Fugene ratio) for 20 min, and then the mixture was added into the cell flask slowly, drop by drop. After the transfection, the cells were cultured under 5% carbon dioxide at 37 °C for 24 h and then moved to a 28 °C incubator.
# SH-SY5Y cells were seeded into 384-well black wall clear bottom plates at a density of 15,000 cells per well, resulting in 90–95% confluence after 24 h. The media were then removed from the wells and replaced with 20 μL of 10% calcium 4 dye (Molecular Devices) in physiological salt solution (PSS) (containing 5.9 mM KCl, 1.4 mM MgCl2, 10 mM HEPES, 1.2 mM NaH2 PO4, 5 mM NaHCO3, 140 mM NaCl, 11.5 mM glucose, and 1.8 mM CaCl2, pH 7.4) with 0.1% BSA. As reported, for N-type calcium channel FLIPR assays the cells were pre-incubated with 10 µM nifedipine added in the dye to ensure full inhibition of L-type calcium responses. For L-type calcium channel FLIPR assays, the cells were pre-incubated with 1 µM CVID added in the dye to ensure full inhibition of N-type calcium responses. Positive control on the first reagent plate contained 15 μL of PSS (0.1% BSA), whereas PSS (0.1% BSA) containing 1 µM CVID and 10 µM nifedipine (final concentration) was used as a negative control. The fluorescence readings were recorded and converted as described previously, and agonist containing 90 mM KCl + 5 mM CaCl2 was used in the second addition.
# [1] = target: T1, recombinant hCaV3.3 channels (Homo sapiens, UniProt Q9P0X4); test: Whole-cell patch-clamp (QPatch), CaV3.3; assay type: cell-based; conditions: for IC50: whole-cell current, holding potential −90 mV, n = 3–5; for extent of block of CaV3.3 whole-cell inward Ca2+ current: QPatch
# T1 construct: the only CaV3.3-expressing cells described
# Procedure: as §1
# Whole-cell patch-clamp experiments were performed on an automated electrophysiology platform QPatch 16 X (Sophion Bioscience A/S, Ballerup, Denmark) in single-hole configuration using 16-channel planar patch chip QPlates (Sophion Bioscience A/S). The extracellular recording solution contained, in mM: TEACl 157, MgCl2 0.5, CaCl2 5, and HEPES 10; pH 7.4 adjusted with TEAOH; and osmolarity 320 mOsm. The intracellular pipette solution contained, in mM: CsF 140, EGTA 1, HEPES 10, and NaCl 10; pH 7.2 adjusted with CsOH; and osmolarity 325 mOsm. Compounds were diluted in extracellular recording solution with 0.1% BSA at the concentrations stated (DMSO ≤ 0.1%), and the effects of compounds were compared to the control (extracellular solution with 0.1% BSA) parameters within the same cell. Compounds’ incubation time varied from two (for the highest concentration) to five (for the lowest concentration) minutes by applying the voltage protocol 10–30 times at 10 s intervals to ensure steady-state inhibition was achieved. The effects of compounds were obtained using 200 ms voltage steps to peak potential from a holding potential of −90 mV. Current–voltage (I–V) relationships were obtained by holding the cells at a potential of −100 mV before applying 50 ms pulses to potentials from −75 to +50 mV every 5 s in 5 mV increments. […]
# T1 sequence (Q9P0X4 whole entry): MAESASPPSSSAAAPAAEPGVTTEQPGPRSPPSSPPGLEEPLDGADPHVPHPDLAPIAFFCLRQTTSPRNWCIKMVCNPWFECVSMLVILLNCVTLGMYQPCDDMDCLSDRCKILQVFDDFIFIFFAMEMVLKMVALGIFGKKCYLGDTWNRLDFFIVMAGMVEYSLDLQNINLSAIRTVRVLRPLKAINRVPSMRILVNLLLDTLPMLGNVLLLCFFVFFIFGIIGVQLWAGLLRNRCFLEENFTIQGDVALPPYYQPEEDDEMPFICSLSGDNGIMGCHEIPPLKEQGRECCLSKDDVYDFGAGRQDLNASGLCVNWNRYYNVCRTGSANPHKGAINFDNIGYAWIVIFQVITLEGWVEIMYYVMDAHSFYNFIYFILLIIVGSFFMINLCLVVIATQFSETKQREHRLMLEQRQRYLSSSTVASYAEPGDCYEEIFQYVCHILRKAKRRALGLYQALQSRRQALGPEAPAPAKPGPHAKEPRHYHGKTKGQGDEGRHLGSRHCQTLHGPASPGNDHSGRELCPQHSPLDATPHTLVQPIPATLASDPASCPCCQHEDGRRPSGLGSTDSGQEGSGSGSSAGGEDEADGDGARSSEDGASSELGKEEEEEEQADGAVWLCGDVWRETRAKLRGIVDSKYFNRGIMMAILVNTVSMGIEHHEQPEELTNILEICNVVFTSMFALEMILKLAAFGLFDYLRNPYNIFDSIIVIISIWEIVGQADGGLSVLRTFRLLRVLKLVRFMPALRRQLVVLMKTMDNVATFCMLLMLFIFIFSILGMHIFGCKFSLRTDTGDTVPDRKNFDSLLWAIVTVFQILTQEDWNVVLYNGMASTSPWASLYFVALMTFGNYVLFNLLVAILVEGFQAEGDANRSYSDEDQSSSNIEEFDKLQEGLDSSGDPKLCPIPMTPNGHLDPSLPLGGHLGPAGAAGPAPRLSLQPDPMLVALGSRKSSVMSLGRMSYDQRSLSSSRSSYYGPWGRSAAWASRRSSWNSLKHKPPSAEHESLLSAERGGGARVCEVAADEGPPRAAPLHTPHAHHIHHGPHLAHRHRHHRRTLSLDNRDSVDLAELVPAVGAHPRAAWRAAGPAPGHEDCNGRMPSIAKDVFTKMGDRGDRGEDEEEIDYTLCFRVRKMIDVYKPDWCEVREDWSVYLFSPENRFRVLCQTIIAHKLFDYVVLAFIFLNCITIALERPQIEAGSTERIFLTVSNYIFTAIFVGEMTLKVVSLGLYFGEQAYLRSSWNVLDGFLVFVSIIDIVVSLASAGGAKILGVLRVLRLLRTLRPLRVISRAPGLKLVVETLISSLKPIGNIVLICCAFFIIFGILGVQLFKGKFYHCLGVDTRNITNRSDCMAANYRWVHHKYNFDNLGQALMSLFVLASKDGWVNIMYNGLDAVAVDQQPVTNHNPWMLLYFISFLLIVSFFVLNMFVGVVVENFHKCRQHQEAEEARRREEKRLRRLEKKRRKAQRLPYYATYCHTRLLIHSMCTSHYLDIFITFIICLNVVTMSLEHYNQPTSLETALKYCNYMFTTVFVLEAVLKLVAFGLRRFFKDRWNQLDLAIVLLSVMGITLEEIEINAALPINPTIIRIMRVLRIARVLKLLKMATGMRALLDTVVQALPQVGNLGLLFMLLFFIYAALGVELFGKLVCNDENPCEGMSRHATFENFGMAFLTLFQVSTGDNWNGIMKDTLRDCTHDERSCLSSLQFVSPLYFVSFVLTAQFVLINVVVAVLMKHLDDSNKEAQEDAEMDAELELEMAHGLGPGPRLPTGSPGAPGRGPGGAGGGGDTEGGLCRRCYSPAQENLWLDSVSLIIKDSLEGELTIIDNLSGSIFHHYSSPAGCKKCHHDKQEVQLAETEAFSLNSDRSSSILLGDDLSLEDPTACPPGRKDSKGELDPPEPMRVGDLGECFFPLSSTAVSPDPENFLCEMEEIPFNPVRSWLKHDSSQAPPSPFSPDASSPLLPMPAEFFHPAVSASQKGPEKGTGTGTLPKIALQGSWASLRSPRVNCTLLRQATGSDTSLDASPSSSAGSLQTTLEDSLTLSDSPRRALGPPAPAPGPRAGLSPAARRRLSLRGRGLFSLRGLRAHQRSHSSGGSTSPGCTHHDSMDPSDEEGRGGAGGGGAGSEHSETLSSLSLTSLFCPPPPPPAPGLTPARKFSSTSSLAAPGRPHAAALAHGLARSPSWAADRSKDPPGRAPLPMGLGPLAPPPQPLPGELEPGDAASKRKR
IC50 (CaV1) [µM],IC50 [1] [µM],Structure (SMILES),extent of block of CaV3.3 whole-cell inward Ca2+ current [1]
68.6 ± 6.65,9.63 ± 0.97,"c1ccc2c(Cc3c[nH]c4ccccc34)c[nH]c2c1 [DIM, 3,3′-diindolylmethane, reference compound]",
38.8 ± 5.01,,O=C(c1c[nH]c2cc(Br)ccc12)c1c[nH]c2cc(Br)ccc12 [IV],
61 ± 3.99,> 50,"O=C(c1c[nH]c2ccccc12)c1c[nH]c2ccccc12 [DIM-one, 3,3′-diindolylmethanone]",poor inhibition

Structure (SMILES),IC50 (CaV1) [µM],IC50 [1] [µM],extent of block of CaV3.3 whole-cell inward Ca2+ current [1]
"O=C(c1cn(Cc2ccccc2)c2ccccc12)c1cn(Cc2ccccc2)c2ccccc12 [IX, bis(1-benzyl-1H-indol-3-yl)methanone]",48 ± 2.79,2.09 ± 0.69,partially blocked; also recorded: only partial inhibition
